Data from EP0381989A1, “New 4'-epi-4'-amino anthracyclines” (FARMITALIA CARLO ERBA S.r.l., priority 1989, dated 1990).
In brackets after ≈: the same amount, converted by molar mass.

What was measured:
[1] = system: LoVo (human colon adenocarcinoma); test: in vitro cytotoxicity (colony growth inhibition) on LoVo cells; conditions: for Cytotoxicity after 4h of treatment (IC50) LoVo: lovo cells; for IC50: Homo sapiens, LoVo, 4 h, read-out: Cytotoxicity after 4h of treatment (IC50) LoVo
Protocol: (§1) The biological activity of the compounds according to the inventio was tested in vitro against LoVo (human colon adenocarcinoma) and LoVo/DX cells in comparison with doxorubicin and 4-demethoxydaunorubicin (4-dem-DNR). Table 1. Table 1 -

LoVo/DX cells = test: in vitro cytotoxicity (colony growth inhibition) on LoVo/DX cells; conditions: for Cytotoxicity after 4h of treatment (IC50) LoVo/DX: lovo/dx cells; for R.I. = Resistance Index = (IC50 LoVo.DX)/(IC50 LoVo): ratio of IC50 on LoVo/DX to IC50 on LoVo, 4h of treatment; for IC50: Homo sapiens, LoVo/DX, read-out: Cytotoxicity after 4h of treatment (IC50) LoVo/DX; for Cytotoxicity after 4h of treatment (IC50) LoVo/DX / IC50: 4 h
Protocol: as §1

4-demethoxy-6-deoxy-6-amino-3′-deamino-4′-deoxy-4′-epi-amino-daunorubicin [1h]
Cytotoxicity after 4h of treatment (IC50) LoVo [1]: 0.004 µg/mL | Cytotoxicity after 4h of treatment (IC50) LoVo/DX (LoVo/DX cells): 0.0086 µg/mL | R.I. = Resistance Index = (IC50 LoVo.DX)/(IC50 LoVo) (LoVo/DX cells): 2.2

4-demethyl-6-deoxy-3′-deamino-4′-deoxy-4′-epi-amino-doxorubicin [2d]
Cytotoxicity after 4h of treatment (IC50) LoVo [1]: 0.0012 µg/mL | Cytotoxicity after 4h of treatment (IC50) LoVo/DX (LoVo/DX cells): 0.0038 µg/mL | R.I. = Resistance Index = (IC50 LoVo.DX)/(IC50 LoVo) (LoVo/DX cells): 3.2

CC(=O)[C@]1(O)Cc2c(O)c3c(c(O)c2[C@@H](O[C@H]2CC[C@@H](N)[C@H](C)O2)C1)C(=O)c1c(O)cccc1C3=O [1a, 4-demethyl-3′-deamino-4′-deoxy-4′-epi-amino-daunorubicin]
IC50 [1]: 0.0011 µg/mL (≈ 0.00221 µM) | IC50 (LoVo/DX cells): 0.0027 µg/mL (≈ 0.00543 µM) | R.I. = Resistance Index = (IC50 LoVo.DX)/(IC50 LoVo) (LoVo/DX cells): 2.4

CC(=O)[C@]1(O)Cc2c(O)c3c(c(O)c2[C@@H](O[C@H]2CC[C@@H](N)[C@H](C)O2)C1)C(=O)c1c(F)cccc1C3=O [1c, 4-demethoxy-4-fluoro-3′-deamino-4′-deoxy-4′-epi-amino-daunorubicin]
IC50 [1]: 0.0012 µg/mL (≈ 0.0024 µM) | IC50 (LoVo/DX cells): 0.006 µg/mL (≈ 0.012 µM) | R.I. = Resistance Index = (IC50 LoVo.DX)/(IC50 LoVo) (LoVo/DX cells): 5.0

C[C@@H]1O[C@@H](O[C@H]2C[C@](O)(C(=O)CO)Cc3c2c(O)c2c(c3[N+](=O)[O-])C(=O)c3ccccc3C2=O)CC[C@H]1N [2e, 4-demethoxy-11-deoxy-11-nitro-3′-deamino-4′-deoxy-4′-epi-amino-doxorubicin]
IC50 [1]: 0.0484 µg/mL (≈ 0.0919 µM) | IC50 (LoVo/DX cells): 0.205 µg/mL (≈ 0.389 µM) | R.I. = Resistance Index = (IC50 LoVo.DX)/(IC50 LoVo) (LoVo/DX cells): 4.2

C[C@@H]1O[C@@H](O[C@H]2C[C@](O)(C(=O)CO)Cc3c(O)c4c(c([N+](=O)[O-])c32)C(=O)c2ccccc2C4=O)CC[C@H]1N [2f, 4-demethoxy-6-deoxy-6-nitro-3′-deamino-4′-deoxy-4′-epi-amino-doxorubicin]
IC50 [1]: 0.116 µg/mL (≈ 0.22 µM) | IC50 (LoVo/DX cells): 2.26 µg/mL (≈ 4.28 µM) | R.I. = Resistance Index = (IC50 LoVo.DX)/(IC50 LoVo) (LoVo/DX cells): 19.4

C[C@@H]1O[C@@H](O[C@H]2C[C@](O)(C(=O)CO)Cc3c(N)c4c(c(O)c32)C(=O)c2ccccc2C4=O)CC[C@H]1N [2g, 4-demethoxy-11-deoxy-11-amino-3′-deamino-4′-deoxy-4′-epi-amino-doxorubicin]
IC50 [1]: 0.0188 µg/mL (≈ 0.0379 µM) | IC50 (LoVo/DX cells): 0.109 µg/mL (≈ 0.22 µM) | R.I. = Resistance Index = (IC50 LoVo.DX)/(IC50 LoVo) (LoVo/DX cells): 5.8

C[C@@H]1O[C@@H](O[C@H]2C[C@](O)(C(=O)CO)Cc3c(O)c4c(c(N)c32)C(=O)c2ccccc2C4=O)CC[C@H]1N [2h, 4-demethoxy-6-deoxy-6-amino-3′-deamino-4′-deoxy-4′-epi-amino-doxorubicin]
IC50 [1]: 0.0062 µg/mL (≈ 0.0125 µM) | IC50 (LoVo/DX cells): 0.09 µg/mL (≈ 0.181 µM) | R.I. = Resistance Index = (IC50 LoVo.DX)/(IC50 LoVo) (LoVo/DX cells): 14.5

CC(=O)[C@]1(O)Cc2c(O)c3c(c(O)c2[C@@H](O[C@H]2C[C@H](N)[C@H](O)[C@H](C)O2)C1)C(=O)c1ccccc1C3=O [4-dem-DNR, 4-demethoxydaunorubicin, reference compound]
IC50 [1]: 0.02 µg/mL (≈ 0.0402 µM) | IC50 (LoVo/DX cells): 0.125 µg/mL (≈ 0.251 µM) | R.I. = Resistance Index = (IC50 LoVo.DX)/(IC50 LoVo) (LoVo/DX cells): 6

COc1cccc2c1C(=O)c1c(O)c3c(c(O)c1C2=O)C[C@@](O)(C(=O)CO)C[C@@H]3O[C@H]1C[C@H](N)[C@H](O)[C@H](C)O1 [Doxorubicin, doxorubicin, reference compound]
IC50 [1]: 0.06 µg/mL (≈ 0.11 µM) | IC50 (LoVo/DX cells): 2.18 µg/mL (≈ 4.01 µM) | R.I. = Resistance Index = (IC50 LoVo.DX)/(IC50 LoVo) (LoVo/DX cells): 36
